15 compounds from patent US9505745B2, “Enhancer of zeste homolog 2 inhibitors” (GlaxoSmithKline Intellectual Property (No.2) Limited, priority 2013, dated 2016) can be followed below.

The test deals with EZH2 within the PRC2 complex (Homo sapiens (Human), UniProt Q15910). As to the kind of experiment: EZH2 methyltransferase SPA, biotinylated histone H3K27 peptide substrate (Assay Protocol 2). In kind it is biochemical. Conditions: 3H-SAM, ≦10 nM approaches limit of detection. The protocol:
Compounds contained herein were evaluated for their ability to inhibit the methyltransferase activity of EZH2 within the PRC2 complex. Human PRC2 complex was prepared by co-expressing each of the 5 member proteins (FLAG-EZH2, EED, SUZ12, RbAp48, AEBP2) in Sf9 cells followed by co-purification. Enzyme activity was measured in a scintillation proximity assay (SPA) where a tritiated methyl group is transferred from 3H-SAM to a lysine residue on a biotinylated, unmethylated peptide substrate derived from histone H3. The peptides were captured on streptavidin-coated SPA beads and the resulting signal was read on a ViewLux plate reader.
Part A. Compound Preparation
• 4. Prepare 10 mM stock of compounds from solid in 100% DMSO. • 5. Set up an 11-point serial dilution (1:4 dilution, top concentration 10 mM) in 100% DMSO for each test compound in a 384 well plate leaving columns 6 and 18 for DMSO controls. • 6. Dispense 10 nL of compound from the dilution plate into reaction plates (Corning, 384-well polystyrene NBS, Cat#3673). Part B. Reagent Preparation Prepare the following solutions: • 7. 1× Base Buffer, 50 mM Tris-HCl, pH 8, 2 mM MgCl2: Per 1 L of base buffer, combine 1 M Tris-HCl, pH 8 (50 mL), 1 M MgCl2 (2 mL), and distilled water (948 mL). • 8. 1× Assay Buffer: Per 10 mL of 1× Assay Buffer, combine 1× Base Buffer (9.96 mL), 1 M DTT (40 uL), and 10% Tween-20 (1 uL) to provide a final concentration of 50 mM Tris-HCl, pH 8, 2 mM MgCl2, 4 mM DTT, 0.001% Tween-20. • 9. 2× Enzyme Solution: Per 10 mL of 2× Enzyme Solution, combine 1× Assay Buffer (9.99 mL) and 3.24 uM EZH2 5 member complex (6.17 uL) to provide a final enzyme concentration of 1 nM. • 10. SPA Bead Solution: Per 1 mL of SPA Bead Solution, combine Streptavidin coated SPA beads (PerkinElmer, Cat#RPNQ0261, 40 mg) and 1× Assay Buffer (1 mL) to provide a working concentration of 40 mg/mL. • 11. 2× Substrate Solution: Per 10 mL of 2× Substrate Solution, combine 40 mg/mL SPA Bead Solution (375 uL), 1 mM biotinylated histone H3K27 peptide (200 uL), 12.5 uM 3H-SAM (240 uL; 1 mCi/mL), 1 mM cold SAM (57 uL), and 1× Assay Buffer (9.13 mL) to provide a final concentration of 0.75 mg/mL SPA Bead Solution, 10 uM biotinylated histone H3K27 peptide, 0.15 uM 3H-SAM (˜12 uCi/mL 3H-SAM), and 2.85 uM cold SAM. • 12. 2.67× Quench Solution: Per 10 mL of 2.67× Quench Solution, combine 1× Assay Buffer (9.73 mL) and 10 mM cold SAM (267 uL) to provide a final concentration of 100 uM cold SAM. Part C. Assay Reaction in 384-well Grenier Bio-One Plates Compound Addition • 3. Stamp 10 nL/well of 1000× Compound to test wells (as noted above). • 4. Stamp 10 nL/well of 100% DMSO to columns 6 & 18 (high and low controls, respectively). Assay • 10. Dispense 5 uL/well of 1× Assay Buffer to column 18 (low control reactions). • 11. Dispense 5 uL/well of 2× Substrate Solution to columns 1-24 (note: substrate solution should be mixed to ensure homogeneous bead suspension before dispensing into matrix reservoir). • 12. Dispense 5 uL/well of 2× Enzyme Solution to columns 1-17, 19-24. • 13. Incubate the reaction for 60 min at room temperature. Quench • 5. Dispense 6 uL/well of the 2.67× Quench Solution to columns 1-24. • 6. Seal assay plates and spin for ˜1 min at 500 rpm. • 7. Dark adapt plates in the ViewLux instrument for 15-60 min. Read plates • 2. Read the assay plates on the Viewlux Plate Reader utilizing the 613 nm emission filter or clear filter (300 s exposure). Reagent addition can be done manually or with automated liquid handler. Results
Percent inhibition was calculated relative to the DMSO control for each compound concentration and the resulting values were fit using standard IC50 fitting parameters within the ABASE data fitting software package.

Where a name gives a salt, the structure may show the parent alone.

Sequence of EZH2 within the PRC2 complex (Q15910 whole entry): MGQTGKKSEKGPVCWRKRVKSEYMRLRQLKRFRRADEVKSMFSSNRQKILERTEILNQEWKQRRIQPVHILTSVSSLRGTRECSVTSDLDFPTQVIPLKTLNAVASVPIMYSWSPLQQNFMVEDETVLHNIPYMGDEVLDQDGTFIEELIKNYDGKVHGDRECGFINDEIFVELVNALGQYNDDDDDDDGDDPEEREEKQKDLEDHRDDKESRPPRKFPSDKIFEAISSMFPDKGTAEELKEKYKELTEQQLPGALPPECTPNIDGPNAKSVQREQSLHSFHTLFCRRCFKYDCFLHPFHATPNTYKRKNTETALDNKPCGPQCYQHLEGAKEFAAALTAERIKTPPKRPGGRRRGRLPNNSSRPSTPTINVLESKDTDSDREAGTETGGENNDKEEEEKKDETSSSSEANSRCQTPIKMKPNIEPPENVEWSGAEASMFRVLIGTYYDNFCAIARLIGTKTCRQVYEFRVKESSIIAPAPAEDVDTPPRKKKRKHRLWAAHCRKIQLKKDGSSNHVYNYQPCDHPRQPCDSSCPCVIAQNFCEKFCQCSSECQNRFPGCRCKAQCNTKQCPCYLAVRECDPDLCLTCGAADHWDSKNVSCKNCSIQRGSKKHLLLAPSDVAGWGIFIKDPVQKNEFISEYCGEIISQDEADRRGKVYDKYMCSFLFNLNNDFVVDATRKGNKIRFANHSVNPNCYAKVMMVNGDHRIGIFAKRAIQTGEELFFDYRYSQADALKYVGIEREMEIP
Sequence of EZH2 within the PRC2 complex (O75530 whole entry partner): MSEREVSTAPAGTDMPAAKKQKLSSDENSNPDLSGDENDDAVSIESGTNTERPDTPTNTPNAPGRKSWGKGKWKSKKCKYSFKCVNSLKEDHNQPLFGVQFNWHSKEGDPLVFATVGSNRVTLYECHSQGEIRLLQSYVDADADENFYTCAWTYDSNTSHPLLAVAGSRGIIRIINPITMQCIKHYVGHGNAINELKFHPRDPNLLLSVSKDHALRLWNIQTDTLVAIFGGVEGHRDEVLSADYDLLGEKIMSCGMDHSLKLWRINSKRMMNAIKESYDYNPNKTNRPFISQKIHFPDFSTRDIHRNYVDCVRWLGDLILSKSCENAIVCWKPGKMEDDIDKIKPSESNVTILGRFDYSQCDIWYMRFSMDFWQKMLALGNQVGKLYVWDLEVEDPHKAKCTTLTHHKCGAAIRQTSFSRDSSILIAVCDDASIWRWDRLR
Sequence of EZH2 within the PRC2 complex (Q15022 whole entry partner): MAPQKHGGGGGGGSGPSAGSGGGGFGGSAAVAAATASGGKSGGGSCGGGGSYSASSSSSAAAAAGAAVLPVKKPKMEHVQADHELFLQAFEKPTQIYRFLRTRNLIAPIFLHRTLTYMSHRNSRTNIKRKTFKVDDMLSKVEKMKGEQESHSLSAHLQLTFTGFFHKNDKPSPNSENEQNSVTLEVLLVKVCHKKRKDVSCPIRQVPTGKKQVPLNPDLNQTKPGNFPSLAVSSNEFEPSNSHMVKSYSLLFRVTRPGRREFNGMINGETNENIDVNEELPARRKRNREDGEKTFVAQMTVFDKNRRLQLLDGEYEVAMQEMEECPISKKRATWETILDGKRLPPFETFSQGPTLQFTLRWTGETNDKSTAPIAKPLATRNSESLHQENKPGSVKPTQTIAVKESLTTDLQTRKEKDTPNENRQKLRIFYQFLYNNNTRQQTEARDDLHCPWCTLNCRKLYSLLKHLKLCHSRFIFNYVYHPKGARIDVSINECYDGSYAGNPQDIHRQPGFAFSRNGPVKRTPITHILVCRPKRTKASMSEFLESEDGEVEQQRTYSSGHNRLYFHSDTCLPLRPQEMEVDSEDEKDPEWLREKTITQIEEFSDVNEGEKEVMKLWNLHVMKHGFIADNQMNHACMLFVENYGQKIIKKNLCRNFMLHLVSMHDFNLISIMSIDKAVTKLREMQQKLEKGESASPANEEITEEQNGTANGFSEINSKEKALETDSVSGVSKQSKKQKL
Sequence of EZH2 within the PRC2 complex (Q09028 whole entry partner): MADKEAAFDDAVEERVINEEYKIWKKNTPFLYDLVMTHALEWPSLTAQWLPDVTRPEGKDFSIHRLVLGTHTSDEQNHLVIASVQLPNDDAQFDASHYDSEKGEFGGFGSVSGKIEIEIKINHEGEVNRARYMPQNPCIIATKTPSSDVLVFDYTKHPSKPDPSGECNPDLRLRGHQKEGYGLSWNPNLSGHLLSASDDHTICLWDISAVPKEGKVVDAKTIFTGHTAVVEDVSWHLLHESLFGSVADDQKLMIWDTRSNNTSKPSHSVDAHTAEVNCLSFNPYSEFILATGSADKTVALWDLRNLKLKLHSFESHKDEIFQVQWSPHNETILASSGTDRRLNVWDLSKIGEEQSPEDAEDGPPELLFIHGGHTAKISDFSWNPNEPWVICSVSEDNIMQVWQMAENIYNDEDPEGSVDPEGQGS
Sequence of EZH2 within the PRC2 complex (Q6ZN18 whole entry partner): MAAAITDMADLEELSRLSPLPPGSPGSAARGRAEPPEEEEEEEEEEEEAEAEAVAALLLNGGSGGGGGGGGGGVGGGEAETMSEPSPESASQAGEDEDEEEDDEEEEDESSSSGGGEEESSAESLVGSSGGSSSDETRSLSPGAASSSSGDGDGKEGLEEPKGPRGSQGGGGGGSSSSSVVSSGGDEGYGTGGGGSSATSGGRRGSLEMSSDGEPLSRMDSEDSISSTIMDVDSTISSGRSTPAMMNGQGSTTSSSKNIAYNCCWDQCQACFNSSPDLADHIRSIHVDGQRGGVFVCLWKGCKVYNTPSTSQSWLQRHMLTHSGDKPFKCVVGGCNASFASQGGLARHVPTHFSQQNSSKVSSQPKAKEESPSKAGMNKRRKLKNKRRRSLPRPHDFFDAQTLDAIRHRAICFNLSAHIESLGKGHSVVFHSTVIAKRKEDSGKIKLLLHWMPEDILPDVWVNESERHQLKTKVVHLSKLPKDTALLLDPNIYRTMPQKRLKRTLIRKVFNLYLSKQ

For the compound `CCN(c1sc(C#N)c(C(=O)NCc2c(C)cc(C)[nH]c2=O)c1C)C1CCOCC1` [Example 55, 2-Cyano-N-((4,6-dimethyl-2-oxo-1,2-dihydropyridin-3-yl)methyl)-5-(ethyl(tetrahydro-2H-pyran-4-yl)amino)-4-methylthiophene-3-carboxamide hydrochloride], half-maximal inhibition (IC50) required 0.079 µM.

Regarding `CCC(CCCN1CCN(C)CC1)c1scc(C(=O)NCc2c(C)cc(C)[nH]c2=O)c1C` (stereo not drawn) [Example 73, N-((4,6-Dimethyl-2-oxo-1,2-dihydropyridin-3-yl)methyl)-4-methyl-5-(6-(4-methylpiperazin-1-yl)hexan-3-yl)thiophene-3-carboxamide], the IC50 (commonly the concentration needed to halve the response being measured) came out at 0.126 µM. This IC50 is about 1.6-fold higher than that of the compound before.

As to `C/C=C(/c1scc(C(=O)NCc2c(C)cc(C)[nH]c2=O)c1C)[C@H]1CC[C@H](N)CC1` [Example 35, 5-((E)-1-((trans)-4-Aminocyclohexyl)prop-1-en-1-yl)-N-((4,6-dimethyl-2-oxo-1,2-dihydropyridin-3-yl)methyl)-4-methylthiophene-3-carboxamide], the IC50 is 0.013 µM. The value for `CCN(c1scc(C(=O)NCc2c(C)cc(C)[nH]c2=O)c1C)C1CCN(C(C)C)CC1` [Example 66, N-((4,6-dimethyl-2-oxo-1,2-dihydropyridin-3-yl)methyl)-5-(ethyl(1-isopropylpiperidin-4-yl)amino)-4-methylthiophene-3-carboxamide] was 0.063 µM; that for `CCN(c1sc(C2CCN(S(C)(=O)=O)CC2)c(C(=O)NCc2c(C)cc(C)[nH]c2=O)c1C)C1CCOCC1` [Example 63, N-((4,6-Dimethyl-2-oxo-1,2-dihydropyridin-3-yl)methyl)-5-(ethyl(tetrahydro-2H-pyran-4-yl)amino)-4-methyl-2-(1-(methylsulfonyl)piperidin-4-yl)thiophene-3-carboxamide] was 0.501 µM; that for `CCN(c1sc(Br)c(C(=O)NCc2c(C)cc(C)[nH]c2=O)c1C)[C@H]1CC[C@H](N(C)C)CC1` [Example 50, 2-Bromo-N-((4,6-dimethyl-2-oxo-1,2-dihydropyridin-3-yl)methyl)-5-(((trans)-4-(dimethylamino)cyclohexyl)(ethyl)amino)-4-methylthiophene-3-carboxamide hydrochloride] was 0.02 µM.

As to `CCC(c1scc(C(=O)NCc2c(C)cc(C)[nH]c2=O)c1C)[C@H]1CC[C@@H](N(C)C)CC1` (single isomer, unassigned; (-)) [Example 47, (−)-N-((4,6-Dimethyl-2-oxo-1,2-dihydropyridin-3-yl)methyl)-5-(1-((cis)-4-(dimethylamino)cyclohexyl)propyl)-4-methylthiophene-3-carboxamide], the IC50 worked out at 0.013 µM.

Turning to `CCC(c1scc(C(=O)NCc2c(C)cc(C)[nH]c2=O)c1C)[C@H]1CC[C@H](N)CC1` (stereo partly drawn) [Example 43, 5-(1-((trans)-4-Aminocyclohexyl)propyl)-N-((4,6-dimethyl-2-oxo-1,2-dihydropyridin-3-yl)methyl)-4-methylthiophene-3-carboxamide], it took 0.016 µM to reach half-maximal inhibition (IC50). On to `CC[C@@H](c1scc(C(=O)NCc2c(C)cc(C)[nH]c2=O)c1C)N1CCC(N(C)C)CC1` [Example 41, (S)-(−)-N-((4,6-Dimethyl-2-oxo-1,2-dihydropyridin-3-yl)methyl)-5-(1-(4-(dimethylamino)piperidin-1-yl)propyl)-4-methylthiophene-3-carboxamide], for which the IC50 was 0.02 µM. In turn, `CCN(c1sc(C#N)c(C(=O)NCc2c(C)cc(C)[nH]c2=O)c1C)[C@H]1CC[C@H](N(C)C)CC1` [Example 51, 2-Cyano-N-((4,6-dimethyl-2-oxo-1,2-dihydropyridin-3-yl)methyl)-5-(((trans)-4-(dimethylamino)cyclohexyl)(ethyl)amino)-4-methylthiophene-3-carboxamide] yielded an IC50 of 0.025 µM. The value for `CCC(c1scc(C(=O)NCc2c(C)cc(C)[nH]c2=O)c1C)[C@H]1CC[C@H](N(C)C)CC1` (single isomer, unassigned; (+)) [Example 45, (+)-N-((4,6-Dimethyl-2-oxo-1,2-dihydropyridin-3-yl)methyl)-5-(1-((trans)-4-(dimethylamino)cyclohexyl)propyl)-4-methylthiophene-3-carboxamide] was at most 0.01 µM. In the case of `CC[C@H](c1scc(C(=O)NCc2c(C)cc(C)[nH]c2=O)c1C)N1CCC(N(C)C)CC1` [Example 42, (R)-(+)-N-((4,6-dimethyl-2-oxo-1,2-dihydropyridin-3-yl)methyl)-5-(1-(4-(dimethylamino)piperidin-1-yl)propyl)-4-methylthiophene-3-carboxamide] it was 0.316 µM; in that of `CCN(c1sc(C2CCNCC2)c(C(=O)NCc2c(C)cc(C)[nH]c2=O)c1C)C1CCOCC1` [Example 60, N-((4,6-Dimethyl-2-oxo-1,2-dihydropyridin-3-yl)methyl)-5-(ethyl(tetrahydro-2H-pyran-4-yl)amino)-4-methyl-2-(piperidin-4-yl)thiophene-3-carboxamide hydrochloride], 0.631 µM.

`CCN(c1sc(C2CCN(C(=O)OC(C)(C)C)C2)c(C(=O)NCc2c(C)cc(C)[nH]c2=O)c1C)C1CCOCC1` (stereo not drawn) [Example 57, tert-Butyl 3-(3-(((4,6-dimethyl-2-oxo-1,2-dihydropyridin-3-yl)methyl)carbamoyl)-5-(ethyl(tetrahydro-2H-pyran-4-yl)amino)-4-methylthiophen-2-yl)pyrrolidine-1-carboxylate] gave an IC50 of 0.2 µM. In the case of `Cc1cc(C)c(CNC(=O)c2csc(N3CCCC3C3CCNCC3)c2C)c(=O)[nH]1` (stereo not drawn) [Example 68, N-((4,6-dimethyl-2-oxo-1,2-dihydropyridin-3-yl)methyl)-4-methyl-5-(2-(piperidin-4-yl)pyrrolidin-1-yl)thiophene-3-carboxamide hydrochloride] it was 0.079 µM.
